One assay addresses T1, aromatase (Homo sapiens, UniProt P11511).
T1 construct: JEG-3 which constitutively expresses high amount of aromatase and steroid sulfatase; endogenous in cells; host or cells: JEG-3
T1 sequence (P11511 1-503): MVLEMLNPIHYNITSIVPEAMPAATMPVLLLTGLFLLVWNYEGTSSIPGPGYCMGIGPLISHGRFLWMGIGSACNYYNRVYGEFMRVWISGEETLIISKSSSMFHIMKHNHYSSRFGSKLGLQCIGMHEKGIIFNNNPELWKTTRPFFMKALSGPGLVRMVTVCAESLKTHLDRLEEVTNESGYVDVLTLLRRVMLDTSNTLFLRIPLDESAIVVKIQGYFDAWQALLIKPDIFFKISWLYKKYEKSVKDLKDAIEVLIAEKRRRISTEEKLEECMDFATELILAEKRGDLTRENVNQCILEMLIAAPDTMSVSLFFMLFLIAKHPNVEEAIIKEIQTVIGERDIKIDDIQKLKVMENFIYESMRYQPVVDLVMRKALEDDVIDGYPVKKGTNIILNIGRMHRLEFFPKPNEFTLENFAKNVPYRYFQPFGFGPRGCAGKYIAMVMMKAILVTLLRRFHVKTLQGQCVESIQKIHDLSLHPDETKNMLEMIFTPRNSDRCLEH
In words: Aromatase inhibition assay in JEG-3 cells ([1β-3H] androstenedione, tritiated water release). The format is cell-based. Conditions: 1.25 hour incubation, duplicate. How it is done:
(§1) Aromatase and steroid sulfatase enzymes inhibitions were evaluated in the human chorionic carcinoma cell line JEG-3 which constitutively expresses high amount of aromatase and steroid sulfatase.
For aromatase inhibition assay, JEG-3 cells were seeded into 96-well plates at 35,000 cells/well and maintained in MEM containing supplements. When reaching 80% confluent, the cells were washed once with serum-free MEM, incubated with [1β-^3H] androstenedione (A4, 0.2 μCi/ml) for 1.25 hour in the presence of the test substances added in a concentration series. The product, tritiated water (^3H2O), was separated using 2.5% (w/v) dextran-coated charcoal at 4-8° C. for 2 hours. The supernatant radioactivity was measured by a MicroBeta scintillation counter.
(§2) Experiments are performed in duplicate. The inhibitory concentration of 50% of the enzymatic activity is calculated.

The target of a further assay is T2, steroid sulfatase (Homo sapiens, UniProt P08842).
T2 construct: JEG-3 which constitutively expresses high amount of aromatase and steroid sulfatase; endogenous in cells; host or cells: JEG-3
T2 sequence (P08842 22-583): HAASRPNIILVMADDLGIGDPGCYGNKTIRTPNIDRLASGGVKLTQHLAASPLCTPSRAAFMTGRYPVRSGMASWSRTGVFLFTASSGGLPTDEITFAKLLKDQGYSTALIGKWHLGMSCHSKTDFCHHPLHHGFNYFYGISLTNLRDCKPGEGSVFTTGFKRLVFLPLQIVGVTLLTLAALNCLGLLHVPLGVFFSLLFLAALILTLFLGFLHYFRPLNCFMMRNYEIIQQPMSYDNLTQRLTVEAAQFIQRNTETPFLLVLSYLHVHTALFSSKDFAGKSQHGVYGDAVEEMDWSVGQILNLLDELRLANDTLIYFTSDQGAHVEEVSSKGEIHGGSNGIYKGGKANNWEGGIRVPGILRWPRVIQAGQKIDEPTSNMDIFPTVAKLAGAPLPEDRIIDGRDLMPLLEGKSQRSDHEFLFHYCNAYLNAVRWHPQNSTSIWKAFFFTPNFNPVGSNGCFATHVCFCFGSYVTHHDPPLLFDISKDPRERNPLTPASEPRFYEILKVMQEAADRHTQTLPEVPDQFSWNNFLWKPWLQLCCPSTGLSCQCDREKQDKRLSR
In words: Steroid sulfatase (STS) inhibition assay in JEG-3 cells ([6,7-3H] estrone sulfate). The format is cell-based. Conditions: 1 hour at 37° C., duplicate. On the procedure:
as §1
For STS assay, JEG-3 cells were seeded into 24-well culture plates at 150,000 cells/ml/well and maintained in MEM containing supplements overnight. When reaching 80% confluent, the cells were washed once with serum-free MEM, loaded with 1 ml of substrate mix containing [6,7-3H] Estrone sulfate (E1S, 0.6 μCi/ml) and [4-14C] Estrone (E1, 4 nCi/ml) in the presence of compounds in a concentration series, and incubated for 1 hour at 37° C. The product [3H]E1 was separated from E1S by toluene partition using [4-14C]E1 to monitor extraction procedural losses, and the toluene fraction radioactivity was measured by a MicroBeta scintillation counter.
as §2

As usually defined, the IC50 is the concentration that gives 50% inhibition. Low readings indicate inhibition by little substance, high ones a need for much substance. For `CSc1cc(-c2cc(Nn3cnc4ccccc43)ccc2C#N)ccc1OS(N)(=O)=O` [Example 20, 5′-((1H-Benzo[d]imidazol-1-yl)amino)-2′-cyano-3-(methylthio)-[1,1′-biphenyl]-4-yl sulfamate], the values for the IC50 at aromatase and against steroid sulfatase were 2.9 nM and 52.3 nM, respectively.
On the same counts, the results for `N#Cc1cnc(Cn2cnc3cccnc32)nc1-c1ccc(OS(N)(=O)=O)cc1` [Example 25, 4-(2-((3H-Imidazo[4,5-b]pyridin-3-yl)methyl)-5-cyanopyrimidin-4-yl)phenyl sulfamate] are 6.2 nM and 10.7 nM.
The corresponding values for `CN(c1ccc(C#N)c(-c2ccc(OS(N)(=O)=O)cc2)n1)n1cnc2ccccc21` [Example 23, 4-(6-((1H-Benzo[d]imidazol-1-yl)(methyl)amino)-3-cyanopyridin-2-yl)phenyl sulfamate] are 6.5 nM and 7.1 nM.
The corresponding values for `N#Cc1ccc(Cn2cnc3ccccc32)cc1-c1ccc(OS(N)(=O)=O)cc1` [Example 1, 5′-((1H-Benzo[d]imidazol-1-yl)methyl)-2′-cyano-[1,1′-biphenyl]-4-yl sulfamate] are 1.2 nM and 2 nM.
On to `N#Cc1ncc(Nn2cnc3cccnc32)nc1-c1ccc(OS(N)(=O)=O)cc1` [Example 40, 4-(6-(3H-Imidazo[4,5-b]pyridin-3-ylamino)-3-cyanopyrazin-2-yl)phenyl sulfamate], for which the results for the IC50 on aromatase and at steroid sulfatase were > 60 nM and 18.8 nM, respectively.
The corresponding values for `N#Cc1cnc(Nn2cnc3ccccc32)nc1-c1ccc(OS(N)(=O)=O)cc1` [Example 15, 4-(2-(1H-Benzo[d]imidazol-1-ylamino)-5-cyanopyrimidin-4-yl)phenyl sulfamate] are 17.5 nM and 14.6 nM.
As to `N#Cc1ccc(Nn2nnc3ccccc32)cc1-c1ccc(OS(N)(=O)=O)cc1` [Example 11, 5′-(1H-Benzo[d][1,2,3]triazol-1-ylamino)-2′-cyanobiphenyl-4-yl sulfamate], the figures for the IC50 at aromatase and on steroid sulfatase were 1.2 nM and 18.4 nM, respectively.
`CSc1ccc(-c2cc(Cn3cnc4ccccc43)ccc2C#N)cc1OS(N)(=O)=O` [Example 19, 5′-((1H-benzo[d]imidazol-1-yl)methyl)-2′-cyano-4-(methylthio)-[1,1′-biphenyl]-3-yl sulfamate]: the IC50 against aromatase is 2.2 nM; on steroid sulfatase, > 60 nM.
The corresponding values for `CN(c1ncc(C#N)c(-c2ccc(OS(N)(=O)=O)cc2)n1)n1cnc2ccccc21` [Example 16, 4-(2-((1H-Benzo[d]imidazol-1-yl)(methyl)amino)-5-cyanopyrimidin-4-yl)phenyl sulfamate] are 6.4 nM and 22 nM.
The corresponding values for `CN(c1cnc(C#N)c(-c2ccc(OS(N)(=O)=O)cc2)n1)n1cnc2cccnc21` [Example 44, 4-(6-((3H-Imidazo[4,5-b]pyridin-3-yl)(methyl)amino)-3-cyanopyrazin-2-yl)phenyl sulfamate] are 5.8 nM and > 60 nM.
The corresponding values for `N#Cc1ncc(Cn2cnc3cccnc32)cc1-c1ccc(OS(N)(=O)=O)cc1` [Example 50, 4-(5-((3H-imidazo[4,5-b]pyridin-3-yl)methyl)-2-cyanopyridin-3-yl)phenyl sulfamate] are 16.3 nM and > 60 nM.
For `N#Cc1ccc(Cn2cnc3cccnc32)cc1-c1ccc(OS(N)(=O)=O)cc1` [Example 12, 5′-((3H-Imidazo[4,5-b]pyridin-3-yl)methyl)-2′-cyano-[1,1′-biphenyl]-4-yl sulfamate], the IC50 against aromatase came to 0.5 nM; against steroid sulfatase, 7 nM.
On the same counts, the results for `N#Cc1ccc(Cn2nnc3ccccc32)cc1-c1ccc(OS(N)(=O)=O)cc1` [Example 4, 5′-((1H-Benzo[d][1,2,3]triazol-1-yl)methyl)-2′-cyano-[1,1′-biphenyl]-4-yl sulfamate] are 4.8 nM and 12.1 nM.
Consider `N#Cc1ccc(Nn2cnc3ccccc32)cc1-c1ccc(OS(N)(=O)=O)cc1` [Example 2, 5′-(1H-Benzo[d]imidazol-1-ylamino)-2′-cyano-[1,1′-biphenyl]-4-yl sulfamate], for which the IC50 on aromatase was determined as 2 nM; against steroid sulfatase, 6.8 nM.
On the same counts, the results for `N#Cc1ccc(Nn2nnc3cccnc32)cc1-c1ccc(OS(N)(=O)=O)cc1` [Example 35, 5′-(3H-[1,2,3]Triazolo[4,5-b]pyridin-3-ylamino)-2′-cyano-[1,1′-biphenyl]-4-yl sulfamate] are 5.1 nM and 29.4 nM.
For the compound `CSc1ccc(-c2cc(N(C)n3cnc4ccccc43)ccc2C#N)cc1OS(N)(=O)=O` [Example 28, 5′-((1H-Benzo[d]imidazol-1-yl)(methyl)amino)-2′-cyano-4-(methylthio)-[1,1′-biphenyl]-3-yl sulfamate], the IC50 was 5.8 nM on aromatase and > 60 nM on steroid sulfatase.
The corresponding values for `CN(c1cc(-c2ccc(OS(N)(=O)=O)cc2)c(C#N)cn1)n1cnc2ccccc21` [Example 29, 4-(2-((1H-Benzo[d]imidazol-1-yl)(methyl)amino)-5-cyanopyridin-4-yl)phenyl sulfamate] are 2.5 nM and 37.6 nM.
On the same counts, the results for `N#Cc1ccc(N(CC2CC2)n2cnc3ccccc32)cc1-c1ccc(OS(N)(=O)=O)cc1` [Example 6, 5′-((1H-Benzo[d]imidazol-1-yl)(cyclopropylmethyl)amino)-2′-cyano-[1,1′-biphenyl]-4-yl sulfamate] are 53.2 nM and > 60 nM.
The corresponding values for `N#Cc1ccc(Cn2cnc3ccccc32)nc1-c1ccc(OS(N)(=O)=O)cn1` [Example 42, 6′-((1H-Benzo[d]imidazol-1-yl)methyl)-3′-cyano-[2,2′-bipyridin]-5-yl sulfamate] are 41.9 nM and > 60 nM.
Take `N#Cc1ncc(Nn2cnc3ccccc32)cc1-c1ccc(OS(N)(=O)=O)cc1` [Example 38, 4-(5-(1H-Benzo[d]imidazol-1-ylamino)-2-cyanopyridin-3-yl)phenyl sulfamate]: the values for the IC50 against aromatase and at steroid sulfatase were 2.7 nM and 19.1 nM, respectively.
For the compound `CN(c1cnc(C#N)c(-c2ccc(OS(N)(=O)=O)cc2)n1)n1cnc2ccccc21` [Example 34, 4-(6-((1H-Benzo[d]imidazol-1-yl)(methyl)amino)-3-cyanopyrazin-2-yl)phenyl sulfamate], the values for the IC50 against aromatase and against steroid sulfatase were 8.4 nM and 35.7 nM, respectively.

(Values after patent US9682941B2, “Substituted biphenyl analogues as dual inhibitors of aromatase and sulfatase” (ESTRYX PHARMA LIMITED, priority 2013, dated 2017).)
